Molecules are shown by their SMILES.

Holding throughout (type): ADME, organism-based, Macaca fascicularis
Data set [1] can be described thus: Drug uptake in anesthetized cynomolgus monkey brain frontal lobe after 185 mins postinjection. To be noted: in vivo.
Data set [2] can be described thus: Drug uptake in anesthetized cynomolgus monkey brain cerebellum after 125 mins postinjection. To be noted: in vivo.
Data set [3] is described as follows: Drug uptake in anesthetized cynomolgus monkey brain cerebellum after 185 mins postinjection. The conditions noted are these: in vivo.
A short description of data set [4]: Ratio of drug uptake in thalamus to cerebellum in anesthetized cynomolgus monkey after 205 mins postinjection. To be noted: in vivo.
The nature of data set [5]: Drug uptake in anesthetized cynomolgus monkey brain cerebellum after 105 mins postinjection. The conditions noted are these: in vivo, 1.75 h.
Data set [6] is described as follows: Drug uptake in anesthetized cynomolgus monkey brain occipital lobe after 12.5 mins postinjection. The conditions noted are these: in vivo.
Data set [7] can be described thus: Drug uptake in anesthetized cynomolgus monkey brain cerebellum after 145 mins postinjection. The conditions noted are these: in vivo.
Data set [8] can be described thus: Ratio of drug uptake in caudate to cerebellum in anesthetized cynomolgus monkey after 185 mins postinjection. To be noted: in vivo.
A short description of data set [9]: Ratio of drug uptake in caudate to cerebellum in anesthetized cynomolgus monkey after 195 mins postinjection. The conditions noted are these: in vivo, 3.25 h.
Data set [10] in a line: Drug uptake in anesthetized cynomolgus monkey brain frontal lobe after 205 mins postinjection. To be noted: in vivo.

Consider `O=C(OCCC[18F])C1C2CCC(CC1c1cccc(/C=C\I)c1)N2` (stereo not given), for which the Drug uptake in data set [1] is 2.03; in data set [2], 2.79; in [3], 2.18; in data set [5], 3.31; in data set [6], 3.6; in [7] it was 2.4. The molecule also came in with a Drug uptake in data set [10] of 1.89. Moreover, the values for the Ratio in data set [4], in data set [8] and in [9] were 1.6, 1.3 and 1.3, respectively.

For the molecule `O=C(OCC[18F])C1C2CCC(CC1c1cccc(/C=C\Br)c1)N2` (stereo not given), the Drug uptake in [1] amounted to 2.29; in [2] it was 2.68; in data set [3], 1.86; in data set [5], 2.87; in data set [6], 2.68; in data set [7], 2.35. This molecule gave a Drug uptake in data set [10] of 1.98. Also, the Ratio in data set [4] is recorded as 1.8; in data set [8], 1.8; in data set [9], 1.7.

The record behind these values is ChEMBL document CHEMBL1151757, “Synthesis, radiosynthesis, and biological evaluation of fluorine-18-labeled 2beta-carbo(fluoroalkoxy)-3beta-(3'-((Z)-2-haloethenyl)phenyl)nortropanes: candidate radioligands for in vivo imaging of the serotonin transporter with positron emission tomography” (J Med Chem, 2008).
